From ChEMBL document CHEMBL1144827, “PTP1B inhibitors: synthesis and evaluation of difluoro-methylenephosphonate bioisosteres on a sulfonamide scaffold” (Bioorg Med Chem Lett, 2008)

Target: T1, Tyrosine-protein phosphatase non-receptor type 1 (Homo sapiens, UniProt P18031)
T1 sequence (P18031 whole entry): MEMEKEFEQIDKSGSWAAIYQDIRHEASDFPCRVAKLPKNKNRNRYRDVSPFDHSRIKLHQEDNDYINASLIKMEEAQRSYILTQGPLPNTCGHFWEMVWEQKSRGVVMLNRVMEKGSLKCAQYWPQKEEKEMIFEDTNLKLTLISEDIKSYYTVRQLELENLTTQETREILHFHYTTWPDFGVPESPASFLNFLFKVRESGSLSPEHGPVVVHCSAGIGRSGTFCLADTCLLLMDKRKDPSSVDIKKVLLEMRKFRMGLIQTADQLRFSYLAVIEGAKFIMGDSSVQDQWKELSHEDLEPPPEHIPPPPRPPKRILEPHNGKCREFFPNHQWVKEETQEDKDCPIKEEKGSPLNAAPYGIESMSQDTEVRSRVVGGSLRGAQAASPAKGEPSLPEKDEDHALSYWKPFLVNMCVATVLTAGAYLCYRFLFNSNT
Assay: Inhibition of PTP1B

| IC50 | Structure (SMILES) |
| --- | --- |
| 235 µM | O=C(O)C(=O)N(c1ccccc1)c1ccc(CN(Cc2ccc(-c3csnn3)cc2)S(=O)(=O)c2ccccc2)cc1 |
| 76.2 µM | Cc1cc(CN(Cc2ccc(-c3csnn3)cc2)S(=O)(=O)c2ccc(OCC(=O)O)cc2)ccc1OCC(=O)O |
| 13.8 µM | O=C(O)C(=O)Nc1ccc(CN(Cc2ccc(-c3csnn3)cc2)S(=O)(=O)c2ccccc2)cc1Br |
| 198 µM | O=C(O)C(F)(F)Oc1cccc(CN(Cc2ccc(-c3csnn3)cc2)S(=O)(=O)c2ccccc2)c1 |
| 123 µM | O=P(O)(O)Cc1ccc(CN(Cc2ccc(-c3csnn3)cc2)S(=O)(=O)c2ccccc2)cc1 |
| > 250 µM | COc1cc(CN(Cc2ccc(-c3csnn3)cc2)S(=O)(=O)c2ccc(OCC(=O)O)cc2)ccc1OC(F)(F)C(=O)O |
| > 250 µM | O=C(O)COc1ccc(S(=O)(=O)N(Cc2ccc(-c3csnn3)cc2)Cc2ccc(N(C(=O)C(=O)O)c3ccccc3)cc2)cc1 |
| 38 µM | Cc1cc(CN(Cc2ccc(-c3csnn3)cc2)S(=O)(=O)c2ccccc2)cc(C)c1OC(Cc1ccccc1)C(=O)O (centres undefined) |
| > 250 µM | Cc1cc(CN(Cc2ccc(-c3csnn3)cc2)S(=O)(=O)c2ccc(OCC(=O)O)cc2)cc(C)c1OC(Cc1ccccc1)C(=O)O (centres undefined) |
| 4.4 µM | O=C(O)COc1ccc(S(=O)(=O)N(Cc2ccc(-c3csnn3)cc2)Cc2ccc(OCC(=O)O)c(C(=O)O)c2)cc1 |
| 173 µM | O=C(O)C[S+]([O-])c1ccc(CN(Cc2ccc(-c3csnn3)cc2)S(=O)(=O)c2ccccc2)cc1 (centres undefined) |
| 232 µM | O=C(O)CS(=O)(=O)c1ccc(CN(Cc2ccc(-c3csnn3)cc2)S(=O)(=O)c2ccccc2)cc1 |
| 115 µM | O=C(O)CSc1ccc(CN(Cc2ccc(-c3csnn3)cc2)S(=O)(=O)c2ccccc2)cc1 |
| 153 µM | CC(C(=O)O)c1ccc(CN(Cc2ccc(-c3csnn3)cc2)S(=O)(=O)c2ccc(OCC(=O)O)cc2)cc1 (centres undefined) |
| 12.2 µM | O=C(O)COc1ccc(CN(Cc2ccc(-c3csnn3)cc2)S(=O)(=O)c2ccccc2)cc1C(=O)O |
| 27.6 µM | O=C(O)COc1ccc(S(=O)(=O)N(Cc2ccc(C(=O)C(=O)O)cc2)Cc2ccc(-c3csnn3)cc2)cc1 |
| 137 µM | O=C(O)COc1c(F)cc(CN(Cc2ccc(-c3csnn3)cc2)S(=O)(=O)c2ccccc2)cc1F |
| 97.1 µM | O=C(O)C(F)(F)Oc1ccc(CN(Cc2ccc(-c3csnn3)cc2)S(=O)(=O)c2ccccc2)cc1 |
| 57.7 µM | O=C(O)COc1ccc(S(=O)(=O)N(Cc2ccc(-c3csnn3)cc2)Cc2ccc(OCC(=O)O)c(Cl)c2)cc1 |
| 29.1 µM | O=C(O)COc1ccc(S(=O)(=O)N(Cc2ccc(-c3csnn3)cc2)Cc2ccc3oc(C(=O)O)cc3c2)cc1 |
| 4.1 µM | O=C(O)COc1ccc(S(=O)(=O)N(Cc2ccc(-c3csnn3)cc2)Cc2ccc(OCC(=O)O)c(Br)c2)cc1 |
| 29.1 µM | O=C(O)COc1ccc(S(=O)(=O)N(Cc2ccc(OC(F)(F)C(=O)O)cc2)Cc2ccc(-c3csnn3)cc2)cc1 |

| IC50 | Structure (SMILES) |
| --- | --- |
| 53.8 µM | O=C(O)COc1ccc(CN(Cc2ccc(-c3csnn3)cc2)S(=O)(=O)c2ccccc2)cc1Cl |
| 52.1 µM | O=C(O)C(F)(F)Oc1ccc(CN(Cc2ccc(-c3csnn3)cc2)S(=O)(=O)c2ccccc2)cc1Br |
| 51.8 µM | O=C(O)C(F)(F)c1ccc(CN(Cc2ccc(-c3csnn3)cc2)S(=O)(=O)c2ccccc2)cc1 |
| 63.6 µM | O=C(O)c1cc2cc(CN(Cc3ccc(-c4csnn4)cc3)S(=O)(=O)c3ccccc3)ccc2o1 |
| 114 µM | O=C(O)COc1ccc(S(=O)(=O)N(Cc2ccc(SCC(=O)O)cc2)Cc2ccc(-c3csnn3)cc2)cc1 |
| 54.1 µM | O=C(O)COc1ccc(CN(Cc2ccc(-c3csnn3)cc2)S(=O)(=O)c2ccccc2)cc1 |
| 77.9 µM | O=C(O)COc1ccc(S(=O)(=O)N(Cc2ccc(-c3csnn3)cc2)Cc2ccc(OC(F)(F)C(=O)O)c(Br)c2)cc1 |
| 1.4 µM | O=C(O)COc1ccc(S(=O)(=O)N(Cc2ccc(-c3csnn3)cc2)Cc2ccc(NC(=O)C(=O)O)c(C(=O)O)c2)cc1 |
| 17.7 µM | O=C(O)COc1ccc(S(=O)(=O)N(Cc2ccc(-c3csnn3)cc2)Cc2ccc(C(F)(F)C(=O)O)cc2)cc1 |
| > 250 µM | O=C(O)COc1ccc(S(=O)(=O)N(Cc2ccc(-c3csnn3)cc2)Cc2ccc(S(=O)(=O)CC(=O)O)cc2)cc1 |
| > 250 µM | O=C(O)COc1ccc(S(=O)(=O)N(Cc2ccc(-c3csnn3)cc2)Cc2ccc([S+]([O-])CC(=O)O)cc2)cc1 (centres undefined) |
| 96.8 µM | O=C(O)COc1ccc(S(=O)(=O)N(Cc2ccc(CP(=O)(O)O)cc2)Cc2ccc(-c3csnn3)cc2)cc1 |
| 237 µM | COc1cc(CN(Cc2ccc(-c3csnn3)cc2)S(=O)(=O)c2ccccc2)ccc1OC(F)(F)C(=O)O |
| 7.9 µM | O=C(O)COc1ccc(CN(Cc2ccc(-c3csnn3)cc2)S(=O)(=O)c2ccccc2)cc1Br |
| 19.9 µM | O=C(O)COc1ccc(S(=O)(=O)N(Cc2ccc(-c3csnn3)cc2)Cc2cc(F)c(OCC(=O)O)c(F)c2)cc1 |
| 80.7 µM | Cc1cc(CN(Cc2ccc(-c3csnn3)cc2)S(=O)(=O)c2ccccc2)ccc1OCC(=O)O |
| 74.2 µM | CC(C(=O)O)(C(=O)O)c1ccc(CN(Cc2ccc(-c3csnn3)cc2)S(=O)(=O)c2ccc(OCC(=O)O)cc2)cc1 |
| 59.6 µM | O=C(O)COc1ccc(CN(Cc2ccc(-c3csnn3)cc2)S(=O)(=O)c2ccc(OCC(=O)O)cc2)cc1 |
| 60.3 µM | O=C(O)C(=O)c1ccc(CN(Cc2ccc(-c3csnn3)cc2)S(=O)(=O)c2ccccc2)cc1 |
| 230 µM | O=C(O)COc1ccc(S(=O)(=O)N(Cc2ccc(-c3csnn3)cc2)Cc2cccc(OC(F)(F)C(=O)O)c2)cc1 |
| 0.2 µM | O=P(O)(O)C(F)(F)c1ccc(CN(Cc2ccc(-c3csnn3)cc2)S(=O)(=O)c2ccccc2)cc1 |
| 10.1 µM | O=C(O)C(=O)Nc1ccc(CN(Cc2ccc(-c3csnn3)cc2)S(=O)(=O)c2ccccc2)cc1C(=O)O |
